Results: PMC12024234, “Antioxidant, Anti-Inflammatory, and Oral Bioavailability of Novel Sulfonamide Derivatives of Gallic Acid” (Antioxidants, 2025)
Entries after “also recorded” stand apart in the source; their conditions may differ.

How the values were obtained:
COX-2 = target: T1, COX-2 (Homo sapiens, UniProt P35354); assay: Cyclooxygenase (COX-2) activity assay in HIEC-6 cell lysate; assay type: biochemical
T1 construct: endogenous in cells; host or cells: HIEC-6 cell lysate
T1 sequence (P35354 18-604): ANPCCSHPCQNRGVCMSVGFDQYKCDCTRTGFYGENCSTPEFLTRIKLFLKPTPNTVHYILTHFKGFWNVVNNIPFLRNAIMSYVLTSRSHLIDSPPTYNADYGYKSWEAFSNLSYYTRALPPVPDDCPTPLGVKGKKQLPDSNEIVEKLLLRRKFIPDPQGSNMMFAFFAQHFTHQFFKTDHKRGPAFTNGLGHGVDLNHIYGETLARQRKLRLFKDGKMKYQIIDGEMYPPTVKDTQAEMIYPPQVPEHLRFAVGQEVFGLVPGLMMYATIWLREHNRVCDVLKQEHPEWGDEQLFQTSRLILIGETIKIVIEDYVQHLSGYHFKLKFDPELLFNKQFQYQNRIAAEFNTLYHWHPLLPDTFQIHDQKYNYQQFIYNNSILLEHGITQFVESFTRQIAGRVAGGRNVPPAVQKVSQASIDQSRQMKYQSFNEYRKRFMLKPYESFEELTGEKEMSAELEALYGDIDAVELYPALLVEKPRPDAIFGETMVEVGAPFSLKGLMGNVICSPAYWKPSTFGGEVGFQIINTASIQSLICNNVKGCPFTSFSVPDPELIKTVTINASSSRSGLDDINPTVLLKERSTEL
Description: Cyclooxygenase (COX-2) activity assay was performed in HIEC-6 cells according to the manufacturer’s instructions (ab204699). Resorufin standards (0–20 pmol/well) were used to generate a calibration curve for quantifying sample concentrations. HIEC-6 cells were centrifuged at 500× g for 3 min and washed with PBS. The cell pellet was lysed in an ice-cold lysis buffer containing 10% Triton X-100 and a protease inhibitor cocktail in PBS for 5 min. The lysate was then centrifuged at 12,000× g for 3 min at 4 °C, and the supernatant was collected and kept on ice. Protein concentration in the supernatant was determined using a Bradford assay, with a bovine serum albumin standard curve (0–2000 µg/mL). […] This mixture was added to a 96-well plate, and the reaction was initiated by adding arachidonic acid (COX-2 substrate) dissolved in NaOH solution. The enzymatic reaction produced fluorescent resorufin dye, which was measured at excitation/emission wavelengths of λEx/Em = 535/587 nm.

[1] = test system: intracellular reactive oxygen species (ROS) levels in HIEC-6 cells; assay: DCFDA / H2DCFDA ROS assay in HIEC-6; assay type: cell-based, Human; settings: HIEC-6, 0.2–50 µM
Description: The antioxidant DCFDA assay was conducted in HIEC-6 according to the protocol provided by the manufacturer Abcam (ab11385) and as mentioned by. Cells were seeded at a cell density of 2.5 × 10^4 cells/well in a clear bottom black 96-well microplate and allowed to adhere overnight at 37 °C in a CO2 incubator. Cells were washed and incubated in 100 µL of the diluted staining DCFDA solution, prepared by diluting 20 mM DCFDA in PBS, for 45 min at 37 °C in the dark Then, the DCFDA solution was removed and GA, 3,4,5-THBS, or 3,4,5-TMBS was added to the cells at different concentrations, in addition to doxorubicin, used as a positive control. Unstained cells were designated as blank. Fluorescence was recorded at Ex/Em = 485/535 nm.
The antioxidant activity of GA, 3,4,5-THBS, and 3,4,5-TMBS was assessed in HIEC-6 cells using the fluorescent probe 2′,7′-dichlorodihydrofluorescein diacetate (H2DCFDA). This assay quantifies the oxidation of H2DCFDA to 2′,7′-dichlorofluorescein (DCF), which serves as a marker for intracellular reactive oxygen species (ROS) levels. Cells were exposed to compound concentrations ranging from 0.2 to 50 µM, and the resulting fluorescence intensities were compared to a control group treated with H2DCFDA alone.

[2] = Ferric reducing antioxidant power (FRAP) assay; settings: compared to GA
Description: The FRAP assay was conducted following an adapted procedure based on the method described by Benzie (1996). The FRAP reagent was prepared fresh and warmed to 25 °C before use. The reagent was made by combining 2.5 mL of a 10 mM TPTZ solution in 40 mM hydrochloric acid, 2.5 mL of a 20 mM FeCl3·6H2O solution, and 25 mL of a 0.3 M sodium acetate buffer adjusted to pH 3.6. For the assay, 100 μL of each sample was mixed with 3 mL of the freshly prepared FRAP reagent and incubated for 4 min. After incubation, the absorbance was recorded at 593 nm using a UV-VIS spectrophotometer, with methanol serving as the blank. A standard calibration curve was generated using ascorbic acid solutions at concentrations of 100, 200, 400, 800, and 1000 μM (R^2 = 0.998). The FRAP values were calculated as μM of ascorbic acid equivalents based on the standard curve. The results presented are the mean of three independent experiments.

| Structure (SMILES) | COX-2 inhibition compared to ibuprofen (COX-2; 1 µM) | COX-2 inhibition compared to ibuprofen (COX-2; 50 µM) | ROS levels (fluorescence intensity) relative to control [1] | FRAP value (antioxidant capacity) [2] |
| --- | --- | --- | --- | --- |
| COc1cc(S(N)(=O)=O)cc(OC)c1OC [3,4,5-TMBS, 3,4,5-trimethoxybenzenesulfonamide] | no significant difference in COX-2 inhibition relative to ibuprofen | high COX-2 inhibition; also recorded: highly significant increase in inhibition | potent antioxidant activity | lower antioxidant activity compared to GA |
| NS(=O)(=O)c1cc(O)c(O)c(O)c1 [3,4,5-THBS, 3,4,5-trihydroxybenzenesulfonamide] | inhibition levels similar to ibuprofen | inhibition levels similar to ibuprofen | potent antioxidant activity | lower antioxidant activity compared to GA |
